In US9241964B2, “Composition from Sphaeranthus indicus and Garcinia mangostana for the control of metabolic syndrome” (LAILA NUTRACEUTICALS, priority 2009, dated 2016):

How the values were obtained:
[1] = test system: Matrix Metalloproteinase-1 (MMP-1); test: Inhibition of MMP-1 production in PMA induced A2058 cells (ELISA); type: cell-based; conditions: PMA induced A2058 human melanoma cells, 24 h, supernatant ELISA
Description: A2058 cells were induced with 50 nM PMA in absence or presence of different concentrations of LI/DD-II/054A/01 for 24 h as indicated. Secreted MMP-1 concentration in the cell free culture supernatants was measured using MMP-1 ELISA Development Kit (R&D System, Minneapolis, Minn., USA). The MMP-1 concentration in culture supernatants was estimated quantitatively from the standard curve generated using known concentrations of MMP-1. Percentage of MMP-1 inhibition at each concentration of test compound was calculated from the formula: {(Conc. of MMP-1 in PMA induced−Conc. of MMP-1 in the test well)×100}[…]Conc. of MMP-1 in PMA induced wells.
MMP-1 was evaluated in PMA induced human melanoma cells, A2058. Briefly, the cells were cultured in Dulbecco's Modified Eagles Medium (DMEM) with 2 mM Glutamine, 100 U/mL penicillin, […] streptomycin and 10% fetal bovine serum (Hyclone, Logan, Utah). Five thousand cells per well were seeded into a 96-well cell culture plate (Corning, USA) one day before the experiment. The culture media was replaced with fresh DMEM containing 10% fetal bovine serum. […] The MMP-1 concentration in culture supernatant was estimated quantitatively by interpolating the optical densities into the standard curve generated from known concentrations of MMP-1. […]

CD36 = test: Immunoblot of CD36 in 3T3-L1 adipocytes; type: cell-based, mouse; conditions: immunoblot normalized with actin
Source text: (§1) The inventors have then evaluated the modulation of metabolic biomarkers those are primarily responsible for the adipogenesis processes, insulin resistance in type 2 diabetes, obesity, metabolic syndrome and other metabolic disorders such as Peroxisome proliferator-activated receptor gamma (PPARγ), CD36, adipocyte fatty acid binding protein 4 (FABP4 or aP2), Perilipin, and beta-3 Adrenergic Receptor (β3AR) during adipogenesis process in 3T3-L1 adipocytes by ethyl actate extract (LI/DD-II/054A/01) of Sphaeranthus indicus and 7-hydroxyfrullanolide (LI054A01) using an immunoblot assay. […] The protein extracts were evaluated by immunoblot assay, and the immuno-reactive bands were developed with West-pico chemiluminescent substrate and the blot images were captured in a Kodak Image Station, normalized with expression of actin.
(§2) Experimental protocol: Mouse pre-adipocyte 3T3-L1 cells are maintained in Dulbecco's Modified Eagles Medium (DMEM) supplemented with 2 mM glutamine, 4.5 g/L glucose and 10% fetal bovine serum. […] Protein content was measured in Bradford method by using Coomassie blue dye and cell lysates were stored in aliquots at −80° C. until further use. […]
(§3) Inhibition of protein expression of biomarker molecules adipocytes in presence or absence of Sphaeranthus indicus extract LI/DD-II/054A/01 and 7-hydroxyfrullanolide (LI054A01) was evaluated in immunoblot assay. […]

perilipin = test: Immunoblot of perilipin in 3T3-L1 adipocytes; type: cell-based, mouse; conditions: immunoblot normalized with actin
Source text: as §1, §2, §3

C=C1C(=O)O[C@H]2C3=C(C)CCC[C@]3(C)CC[C@@]12O [LI054A01, 7-α-hydroxy-4,11(13)-eudesmadien-12,6-olide]
IC50 of MMP-1 [1]: 1.2 µg/mL
adipocyte CD36 protein level (CD36): potently ameliorated
perilipin protein level (perilipin): potently ameliorated
